Data from PubChem BioAssay AID256 (DTP/NCI, 2004).
Toxic doses and inconclusive results are not listed. The calls were made as follows: active = survival T/C of 150% or more; inactive = T/C below 125% in these data.

Tested on: CD2F1 mice, L1210 leukemia ip, survival T/C
Experiment: NCI In Vivo Anticancer Drug Screen. Data for tumor model L1210 Leukemia (intraperitoneal) in CD2F1 (CDF1) mice
Details: higher = longer survival
Procedure, shortened: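 Vehicle-treated tumor-bearing mice served as controls (C) for compound-treated mice (T). Reported figure is T divided by C.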

[1] = endpoint: mean survival time, dose: 50.0 mg/kg/injection, schedule: Q01DX009 (ip), vehicle: saline with Tween-80
[2] = endpoint: mean survival time, dose: 100.0 mg/kg/injection, schedule: Q01DX009 (ip), vehicle: saline with Tween-80
[3] = endpoint: mean survival time, dose: 100.0 mg/kg/injection, schedule: Q04DX003 (ip), vehicle: saline with Tween-80
[4] = endpoint: mean survival time, dose: 200.0 mg/kg/injection, schedule: Q04DX003 (ip), vehicle: saline with Tween-80
[5] = endpoint: mean survival time, dose: 100.0 mg/kg/injection, schedule: Q01DX001 (ip), vehicle: saline
[6] = endpoint: mean survival time, dose: 200.0 mg/kg/injection, schedule: Q01DX001 (ip), vehicle: saline
[7] = endpoint: mean survival time, dose: 400.0 mg/kg/injection, schedule: Q01DX001 (ip), vehicle: saline
[8] = endpoint: mean survival time, dose: 200.0 mg/kg/injection, schedule: Q01DX009 (ip), vehicle: saline with Tween-80
[9] = endpoint: mean survival time, dose: 400.0 mg/kg/injection, schedule: Q01DX009 (ip), vehicle: saline with Tween-80
[10] = endpoint: mean survival time, dose: 400.0 mg/kg/injection, schedule: Q04DX003 (ip), vehicle: saline with Tween-80
[11] = endpoint: mean survival time, dose: 100.0 mg/kg/injection, schedule: Q04DX003 (ip), vehicle: saline
[12] = endpoint: mean survival time, dose: 200.0 mg/kg/injection, schedule: Q04DX003 (ip), vehicle: saline
[13] = endpoint: mean survival time, dose: 50.0 mg/kg/injection, schedule: Q04DX003 (ip), vehicle: saline

Measured: T/C

COC1=C(C)C(=O)C2=C(C1=O)C(COC(N)=O)C1(OC)C3C(CN21)N3C(=O)c1ccccc1 (configuration not stated)
inactive: endpoint: mean survival time, dose: 7.5 mg/kg/injection, schedule: Q01DX001 (ip), vehicle: acetone 106 % of control | endpoint: mean survival time, dose: 10.0 mg/kg/injection, schedule: Q01DX001 (ip), vehicle: acetone 112 % of control | endpoint: mean survival time, dose: 15.0 mg/kg/injection, schedule: Q01DX001 (ip), vehicle: acetone 112 % of control

CSC(=S)N/N=C/c1ccccn1
inactive: [1] 97 % of control | [2] 98 % of control | [3] 103 % of control | [4] 94 % of control

O=C(O)c1ccccc1/C=C/c1ccc([N+](=O)[O-])cc1
inactive: endpoint: mean survival time, dose: 25.0 mg/kg/injection, schedule: Q01DX009 (ip), vehicle: saline with Tween-80 98 % of control | [1] 95 % of control | [2] 104 % of control

Nc1c(Cl)cc(Cl)cc1C(=O)O
inactive: [5] 102 % of control | [6] 100 % of control | [7] 104 % of control

CCCCCCCCCCCCCCCc1cc(O)ccc1[N+](=O)[O-]
inactive: [2] 111 % of control | [8] 115 % of control | [9] 96 % of control

O=S(=O)(N/N=C/c1ccncc1)c1ccccc1
inactive: endpoint: mean survival time, dose: 12.5 mg/kg/injection, schedule: Q04DX003 (ip), vehicle: water 98 % of control | endpoint: mean survival time, dose: 25.0 mg/kg/injection, schedule: Q04DX003 (ip), vehicle: water 98 % of control | endpoint: mean survival time, dose: 50.0 mg/kg/injection, schedule: Q04DX003 (ip), vehicle: water 104 % of control | endpoint: mean survival time, dose: 100.0 mg/kg/injection, schedule: Q04DX003 (ip), vehicle: water 106 % of control | endpoint: mean survival time, dose: 200.0 mg/kg/injection, schedule: Q04DX003 (ip), vehicle: water 112 % of control | endpoint: mean survival time, dose: 400.0 mg/kg/injection, schedule: Q04DX003 (ip), vehicle: water 108 % of control

CC(CC(=O)Nc1ccccc1)C(=O)O (configuration not stated)
inactive: [3] 103 % of control | [4] 101 % of control | [10] 106 % of control

CC(=O)c1ccc[n+](C)c1
inactive: [11] 104 % of control | [12] 104 % of control

O=C(O/N=C(\CN1CCOCC1)c1ccc(Cl)cc1)c1ccccc1
inactive: endpoint: mean survival time, dose: 100.0 mg/kg/injection, schedule: Q04DX003 (ip), vehicle: Klucel (hydroxypropylcellulose) (HPC) 86 % of control | endpoint: mean survival time, dose: 200.0 mg/kg/injection, schedule: Q04DX003 (ip), vehicle: Klucel (hydroxypropylcellulose) (HPC) 90 % of control | endpoint: mean survival time, dose: 400.0 mg/kg/injection, schedule: Q04DX003 (ip), vehicle: Klucel (hydroxypropylcellulose) (HPC) 94 % of control

O=[N+]([O-])c1ccc2c([N+](=O)[O-])ccc3c2c1CC3
inactive: [3] 100 % of control | [4] 109 % of control | [10] 97 % of control

CCN(CC)Cc1cccc(Nc2cc(C)nc(/N=C(\N)Nc3ccc(Cl)c(Cl)c3)n2)c1
inactive: endpoint: mean survival time, dose: 9.5 mg/kg/injection, schedule: Q01DX001 (ip), vehicle: other 102 % of control | endpoint: mean survival time, dose: 19.0 mg/kg/injection, schedule: Q01DX001 (ip), vehicle: other 96 % of control | endpoint: mean survival time, dose: 38.0 mg/kg/injection, schedule: Q01DX001 (ip), vehicle: other 95 % of control

Cc1cn(C2CC3OP(=O)(C(C)(C)C#N)OCC3O2)c(=O)[nH]c1=O (configuration not stated)
inactive: endpoint: median survival time, dose: 12.5 mg/kg/injection, schedule: Q01DX005 (ip), vehicle: distilled water + Tween-80 101 % of control | endpoint: median survival time, dose: 25.0 mg/kg/injection, schedule: Q01DX005 (ip), vehicle: distilled water + Tween-80 100 % of control | endpoint: median survival time, dose: 50.0 mg/kg/injection, schedule: Q01DX005 (ip), vehicle: distilled water + Tween-80 103 % of control | endpoint: median survival time, dose: 100.0 mg/kg/injection, schedule: Q01DX005 (ip), vehicle: distilled water + Tween-80 100 % of control | endpoint: median survival time, dose: 200.0 mg/kg/injection, schedule: Q01DX005 (ip), vehicle: distilled water + Tween-80 97 % of control

CC(=O)CC(C)=NCCN=C(C)CC(C)=O.[Pd]
inactive: endpoint: mean survival time, dose: 3.13 mg/kg/injection, schedule: Q04DX003 (ip), vehicle: distilled water + Tween-80 93 % of control | endpoint: mean survival time, dose: 6.25 mg/kg/injection, schedule: Q04DX003 (ip), vehicle: distilled water + Tween-80 108 % of control | endpoint: mean survival time, dose: 12.5 mg/kg/injection, schedule: Q04DX003 (ip), vehicle: distilled water + Tween-80 100 % of control

S=C(Nc1ccc(Cl)cc1)Nc1ccc(Cl)cc1 (tested in a mixture with another compound)
inactive: [2] 92 % of control | [3] 91 % of control | [8] 97 % of control | [4] 88 % of control | [9] 90 % of control | [10] 93 % of control

CCCCCOS(=O)(=O)O
inactive: [5] 108 % of control | [6] 120 % of control | [7] 102 % of control

Cc1ccc(Cl)cc1N=Cc1ccccc1O
inactive: [2] 98 % of control | endpoint: mean survival time, dose: 132.0 mg/kg/injection, schedule: Q04DX003 (ip), vehicle: saline with Tween-80 110 % of control | [8] 94 % of control | [4] 102 % of control | endpoint: mean survival time, dose: 300.0 mg/kg/injection, schedule: Q04DX003 (ip), vehicle: saline with Tween-80 100 % of control | [9] 97 % of control

CC(=O)Nc1ccc(C=O)cc1
inactive: [13] 102 % of control | [11] 100 % of control | [12] 100 % of control

O=c1cn[nH]c2ccc(Br)cc12
inactive: endpoint: mean survival time, dose: 100.0 mg/kg/injection, schedule: Q01DX001 (ip), vehicle: other 97 % of control | endpoint: mean survival time, dose: 200.0 mg/kg/injection, schedule: Q01DX001 (ip), vehicle: other 102 % of control | endpoint: mean survival time, dose: 400.0 mg/kg/injection, schedule: Q01DX001 (ip), vehicle: other 91 % of control

[CH3][Sn]1([CH3])[O]C2C(CO)OC(n3ccc(=O)[nH]c3=O)C2[O]1 (configuration not stated)
inactive: endpoint: mean survival time, dose: 12.5 mg/kg/injection, schedule: Q01DX005 (ip), vehicle: other 95 % of control | endpoint: mean survival time, dose: 25.0 mg/kg/injection, schedule: Q01DX005 (ip), vehicle: other 101 % of control | endpoint: mean survival time, dose: 50.0 mg/kg/injection, schedule: Q01DX005 (ip), vehicle: other 92 % of control

Cc1cc(C)n(C(=S)[S-])n1.Cc1cc(C)n(C(=S)[S-])n1.[Pt+2]
inactive: endpoint: mean survival time, dose: 25.0 mg/kg/injection, schedule: Q04DX003 (ip), vehicle: saline with Tween-80 90 % of control | endpoint: mean survival time, dose: 50.0 mg/kg/injection, schedule: Q04DX003 (ip), vehicle: saline with Tween-80 90 % of control | [3] 105 % of control

COc1ccc(-c2nc(C)cc3cc(OC)c(OC)cc23)cc1OC
inactive: endpoint: mean survival time, dose: 12.5 mg/kg/injection, schedule: Q01DX009 (ip), vehicle: water 94 % of control | endpoint: mean survival time, dose: 25.0 mg/kg/injection, schedule: Q01DX009 (ip), vehicle: water 94 % of control | endpoint: mean survival time, dose: 50.0 mg/kg/injection, schedule: Q01DX009 (ip), vehicle: water 91 % of control | endpoint: mean survival time, dose: 100.0 mg/kg/injection, schedule: Q01DX009 (ip), vehicle: water 89 % of control

O=CC1C2C=CCC12 (configuration not stated)
inactive: endpoint: mean survival time, dose: 100.0 mg/kg/injection, schedule: Q01DX009 (ip), vehicle: saline sonified 102 % of control | [3] 95 % of control | endpoint: mean survival time, dose: 200.0 mg/kg/injection, schedule: Q01DX009 (ip), vehicle: saline sonified 102 % of control | [4] 95 % of control | endpoint: mean survival time, dose: 400.0 mg/kg/injection, schedule: Q01DX009 (ip), vehicle: saline sonified 91 % of control | [10] 95 % of control

COCC(OC)C(OC)C(OC)C(C=O)OC (configuration not stated)
inactive: endpoint: mean survival time, dose: 50.0 mg/kg/injection, schedule: Q01DX001 (ip), vehicle: Klucel (hydroxypropylcellulose) (HPC) 99 % of control | endpoint: mean survival time, dose: 100.0 mg/kg/injection, schedule: Q01DX001 (ip), vehicle: Klucel (hydroxypropylcellulose) (HPC) 99 % of control | endpoint: mean survival time, dose: 200.0 mg/kg/injection, schedule: Q01DX001 (ip), vehicle: Klucel (hydroxypropylcellulose) (HPC) 105 % of control

COc1cc2c(cc1OCc1ccccc1)NC(=O)C2
inactive: endpoint: mean survival time, dose: 100.0 mg/kg/injection, schedule: Q01DX001 (ip), vehicle: saline with Tween-80 91 % of control | endpoint: mean survival time, dose: 400.0 mg/kg/injection, schedule: Q01DX001 (ip), vehicle: saline with Tween-80 86 % of control

COC(=O)c1ccccc1SSc1ccccc1C(=O)OC
inactive: [2] 93 % of control | [8] 98 % of control | [9] 93 % of control

CC(C)CC(C)COC(=O)c1c(Cl)c(Cl)c(Cl)c(Cl)c1C(=O)O (configuration not stated)
inactive: [5] 90 % of control | [6] 90 % of control

CCN(CCc1ccc(N)cc1)C(Cc1ccccc1)c1cccc(OC)c1 (configuration not stated)
inactive: endpoint: mean survival time, dose: 12.5 mg/kg/injection, schedule: Q01DX009 (ip), vehicle: saline 102 % of control | endpoint: mean survival time, dose: 12.5 mg/kg/injection, schedule: Q04DX003 (ip), vehicle: saline 103 % of control | endpoint: mean survival time, dose: 25.0 mg/kg/injection, schedule: Q01DX009 (ip), vehicle: saline 97 % of control | endpoint: mean survival time, dose: 25.0 mg/kg/injection, schedule: Q04DX003 (ip), vehicle: saline 97 % of control | endpoint: mean survival time, dose: 50.0 mg/kg/injection, schedule: Q01DX009 (ip), vehicle: saline 100 % of control | [13] 95 % of control
